{"source": "patent US20260373229A1", "about": "“TOPICALLY APPLICABLE PREPARATION FOR IMPROVING SKIN CONDITION” (priority 2022, published 2026)", "key": {"Staphylococcus aureus": {"tested_on": "Staphylococcus aureus", "assay": "Minimum inhibitory concentration / antimicrobial activity against Staphylococcus aureus in vitro", "assay_type": "cell-based", "conditions": "for minimum inhibitory concentration (MIC): Staphylococcus aureus"}, "C. acnes DSM1897": {"tested_on": "C. acnes DSM1897", "assay": "Growth of C. acnes DSM1897 in microtiter plates (OD600, anaerobic, 5 days)", "assay_type": "cell-based, Cutibacterium acnes (Propionibacterium acnes)", "experimental": "The effect of the preparations according to the invention on the growth of C. acnes, S. aureus and S. epidermidis was investigated in in vitro studies.\nC. acnes DSM1897 was incubated under anaerobic conditions at 37 °C. The overnight culture was diluted 1:1000 in Caso medium (casein peptone 17 g/l; soybean meal peptone 3 g/l; sodium chloride 5 g/l; glucose 2.5 g/l; dipotassium hydrogen phosphate 2.5 g/l; pH 7.3±0.2) and seeded in microtiter plates. Different concentrations of the plant extract Glycyrrhiza inflata and licochalcone A (1 μg/ml, 2 μg/ml) were added, mixed and incubated anaerobically at 37 °C for 5 days. […] The optical density (OD) was measured photometrically at a wavelength of 600 nm (OD600) to estimate the growth of the bacteria. […]\nUnless otherwise stated, the quantities refer to the weight of the compound per volume of medium, e.g. 1 μg/ml means 1 μg licochalcone A in 1 ml medium. The percentage quantities of ISW1-2 refer to the weight of ISW1-2 in relation to the total weight of the respective test preparation.\nC. acnes 1897 was incubated without ISW1-2 (FIG. 1 shaded) and with a non-inhibitory concentration of 0.00001% ISW1-2 (FIG. 1 black), wherein different concentrations of licochalcone A Extract (0 μg/ml=control; 1 μg/ml; 2 μg/ml) were added. Bacterial growth or inhibition is measured by the increase/reduction of turbidity in the medium (OD600). […]"}, "S. aureus DSM20231": {"tested_on": "S. aureus DSM20231", "assay": "Growth of S. aureus DSM20231 in microtiter plates (OD600, aerobic, 24 h)", "assay_type": "cell-based, Staphylococcus aureus", "conditions": "for synergistic effect with ISW1-2 on S. aureus growth: with 0.00002% ISW1-2, FIGS. 3 to 10", "experimental": "(§1) S. aureus DSM20231 and S. epidermidis ATTC12228 were incubated under aerobic conditions at 37 °C with constant shaking. The overnight cultures were diluted 1:10000 in MHB (Müller Hinton Broth: starch 1.5 g/l; meat infusion 2.0 g/l; peptone from casein (hydrolyzed) 17.5 g/l; pH: 7.4±0.2) and seeded in microtiter plates. […] These experiments were repeated in the presence of a non-inhibitory ISW1-2 concentration (0.00002% ISW1-2). To estimate bacterial growth, the optical density (OD) was measured photometrically at a wavelength of 600 nm (OD600). Increasing values indicate bacterial growth (mean value from three independent experiments).\nStaphylococcus aureus DSM20231 was incubated without ISW1-2 (FIGS. 3, 5, 7, 9) and with a non-inhibitory concentration of 0.00002% ISW1-2 (FIGS. 4, 6, 8, 10), wherein different concentrations of licochalcone Extract; licochalcone A; licochalcone C and licochalcone E (0 μg/ml=control; 1 μg/ml; 2 μg/ml) were present. FIGS. 3 to 10 show the bacterial growth over 24 hours under the different conditions (mean values from three independent experiments).\n(§2) Bacterial growth is measured by the increase in turbidity in the medium (OD600), i.e. an increase in OD over time indicates bacterial growth.\nFIGS. 7 and 8 show the studies with ISW1-2 and licochalcone C. Four different amounts of licochalcone C were used (0%, control; 1 μg/ml; 2 μg/ml and 4 μg/ml), alone (FIG. 7) and with 0.00002% ISW1-2 (FIG. 8).\nFIGS. 9 and 10 show the studies with ISW1-2 and licochalcone E. Three different amounts of licochalcone E were used (0%, control; 1 μg/ml; 2 μg/ml), alone (FIG. 9) and with 0.00002% ISW1-2 (FIG. 10)."}, "S. epidermidis ATTC12228": {"tested_on": "S. epidermidis ATTC12228", "assay": "Growth of S. epidermidis 12228 in microtiter plates (OD600, aerobic, 24 h)", "assay_type": "cell-based, Staphylococcus epidermidis", "conditions": "for effect on growth of S. epidermidis (OD600): 1 μg/ml, 2 μg/ml, without ISW1-2, 24 h, FIGS. 11, 13, 15, 17", "experimental": "as §1\nIn further comparative studies, the influence of the combination of compounds according to the invention was also determined on skin commensal germs, such as S. epidermidis (FIGS. 11 to 18).\nFor this purpose, Staphylococcus epidermidis 12228 was incubated without ISW1-2 (FIGS. 11, 13, 15, 17) and with a non-inhibitory concentration of 0.00002% ISW1-2 (FIGS. 12, 14, 16, 18), wherein different concentrations of licochalcone extract; licochalcone A; licochalcone C and licochalcone E (0 μg/ml=control; 1 μg/ml; 2 μg/ml) were present. The bacterial growth over 24 h under the different conditions is shown (mean values from three independent experiments).\nas §2"}, "[1]": {"tested_on": "membrane potential of the bacteria"}, "[2]": {"tested_on": "innate immune response of the skin", "conditions": "in synergy with factors originating from the host and microbiome; cited from earlier work"}}}
{"smiles": "CC(C)C[C@H]1NC(=O)[C@H](Cc2c[nH]c3ccccc23)NC(=O)[C@@H](C(C)C)NC(=O)[C@H]2NC(SC2(C)C)[C@H](C(C)C)NC(=O)[C@@H](Cc2c[nH]c3ccccc23)NC(=O)[C@H](C(C)C)NC1=O", "note": "[ISW1-2, cyclo [N-DVal-LTrp-DLeu-LVal-DTrp-LMe2Thz(LVal)-C]]", "values": [{"measurement": "sensitivity of skin pathogens such as Staphylococcus aureus", "setting": "Staphylococcus aureus", "value": "particularly sensitive"}, {"measurement": "minimum inhibitory concentration (MIC)", "setting": "Staphylococcus aureus", "value": 3.1, "unit": "µg/mL"}, {"measurement": "minimum inhibitory concentration (MIC)", "setting": "Staphylococcus aureus; 3.1 μg/ml expressed in %", "value": 0.00031, "unit": "%"}, {"measurement": "growth inhibition of C. acnes (OD600)", "setting": "C. acnes DSM1897; 0.00001% ISW1-2 alone, anaerobic, 37 °C, 5 days", "value": "non-inhibitory"}, {"measurement": "growth inhibition of S. aureus (OD600)", "setting": "S. aureus DSM20231; 0.00002% ISW1-2 alone, 37 °C, 24 h", "value": "non-inhibitory"}, {"measurement": "growth inhibition of S. epidermidis (OD600)", "setting": "S. epidermidis ATTC12228; 0.00002% ISW1-2 alone, 24 h", "value": "non-inhibitory"}, {"measurement": "mechanism of action", "setting": "[1]; antibacterial effect", "value": "based on proton translocation while maintaining membrane integrity"}, {"measurement": "correlation of antibacterial effect with membrane potential drop", "setting": "[1]; bacteria", "value": "correlates strongly with the drop of the membrane potential of the bacteria"}, {"measurement": "effect on innate immune response of the skin", "setting": "[2]", "value": "supports the innate immune response of the skin"}]}
{"smiles": "C=CC(C)(C)c1cc(/C=C/C(=O)c2ccc(O)cc2)c(OC)cc1O", "note": "[licochalcone A]", "values": [{"measurement": "growth inhibition of C. acnes (OD600)", "setting": "C. acnes DSM1897; pure extract or pure licochalcone A without ISW1-2, FIGS. 1 and 2", "value": "only a minor inhibitory effect"}, {"measurement": "effect on growth of S. epidermidis (OD600)", "setting": "S. epidermidis ATTC12228", "value": "No influence on the growth of S. epidermidis was observed"}]}
{"smiles": "C=C(C)[C@@H](C)c1cc(/C=C/C(=O)c2ccc(O)cc2)c(OC)cc1O", "note": "[licochalcone E]", "values": [{"measurement": "synergistic effect with ISW1-2 on S. aureus growth", "setting": "S. aureus DSM20231", "value": "better synergistic effect with ISW1-2, similar to licochalcone A"}, {"measurement": "effect on growth of S. epidermidis (OD600)", "setting": "S. epidermidis ATTC12228", "value": "No influence on the growth of S. epidermidis was observed"}]}
{"smiles": "COc1c(/C=C/C(=O)c2ccc(O)cc2)ccc(O)c1CC=C(C)C", "note": "[licochalcone C]", "values": [{"measurement": "synergistic effect with ISW1-2 on S. aureus growth", "setting": "S. aureus DSM20231", "value": "somewhat less synergistically with ISW1-2 than licochalcone A"}, {"measurement": "effect on growth of S. epidermidis (OD600)", "setting": "S. epidermidis ATTC12228", "value": "No influence on the growth of S. epidermidis was observed"}]}
